# Literature values as cited in US6703034B2, “Neem oil microemulsion without cosurfactants or alcohols and a process to form the same” (University of Florida, priority 2000, dated 2004).
# How the values were obtained:
# certain insects = conditions: quantities as low as
# Insects = conditions: treated during larval and pupal stages
compound,measurement,setting,value
C/C=C(\C)C(=O)O[C@H]1C[C@@H](OC(C)=O)[C@@]2(C(=O)OC)CO[C@H]3[C@@H](O)[C@@](C)([C@]45O[C@@]4(C)[C@H]4C[C@@H]5O[C@@H]5OC=C[C@@]54O)[C@H]4[C@]1(CO[C@]4(O)C(=O)OC)[C@@H]32 [azadirachtin],quantity at which potent (repels certain insects),certain insects,1 ppm
same,time to death of treated insects,Insects,3 to 14 days
